Experimental data reported in BindingDB's records for doi:10.1016/s0960-894x(00)00142-6 (University of Wales, 2000).

Biological target: Glutathione S-transferase 2 (Onchocerca volvulus)
Experiment: The compound was tested for it's inhibitory activity against Onchocerca volvulus Glutathione S-transferase 2

| IC50 [µM] | SMILES |
| --- | --- |
| 220 | NC(CCC(=O)NC(CSC1CCCC(=O)C1)C(=O)NCC(=O)O)C(=O)O (centres undefined) [2-Amino-4-[1-(carboxymethyl-carbamoyl)-2-(3-oxo-cyclohexylsulfanyl)-ethylcarbamoyl]-butyric acid] |
| 31.9 | CC(C)C(=O)CC(SCC(NC(=O)CCC(N)C(=O)O)C(=O)NCC(=O)O)c1ccccc1 (centres undefined) [2-Amino-4-[1-(carboxymethyl-carbamoyl)-2-(4-methyl-3-oxo-1-phenyl-pentylsulfanyl)-ethylcarbamoyl]-butyric acid] |
| 48 | CCCCOC(=O)CC(SCC(NC(=O)CCC(N)C(=O)O)C(=O)NCC(=O)O)C(=O)O (centres undefined) [2-[2-(4-Amino-4-carboxy-butyrylamino)-2-(carboxymethyl-carbamoyl)-ethylsulfanyl]-succinic acid 4-butyl ester] |
| 19.1 | N[C@@H](CCC(=O)N[C@@H](CS[C@H](CC(=O)O)C(=O)O)C(=O)NCC(=O)O)C(=O)O [2-[2-(4-Amino-4-carboxy-butyrylamino)-2-(carboxymethyl-carbamoyl)-ethylsulfanyl]-succinic acid] |
